Experimental data as given in patent publication US7977360B2, “Benzo[d]isoxazol-3-yl-amine compounds and their use as vanilloid receptor ligands” (Gruenenthal GmbH, priority 2005, dated 2011).

Target: T1, vanilloid receptor 1 (VR1/TRPV1 receptor) (Rattus norvegicus, UniProt O35433)
T1 construct: endogenous in cells; host or cells: primary cultured dorsal root ganglion cells from rats
Test: Functional study on vanilloid receptor 1 (VR1/TRPV1), FLIPR Ca2+ inflow assay in rat dorsal root ganglia cells (method I)
Type: cell-based
Details: compound 10 μM, rat DRG cells; for inhibition at 10 µM: then 100 nM capsaicin after 5 min, per method % inhibition vs maximum achievable inhibition with 10 μM capsaicin, read-out: rVR1 [10 μM] inhibition; for rVR1 [10 μM] stimulation: per method % activation in relation to the Ca2+ signal after 10 μM capsaicin
Description: I. Functional Study on Vanilloid Receptor 1 (VR1/TRPV1 Receptor)
The agonistic or antagonistic effect of the substances to be studied on vanilloid receptor 1 (VR1/TRPV1) of the rat species can be determined with the following assay. According to this assay, the Ca^2+ inflow through the receptor canal is quantified with the help of a Ca^2+-sensitive dye (type Fluo-4, Molecular Probes Europe BV, Leiden Netherlands) in the Fluorescent Imaging Plate Reader (FLIPR, Molecular Devices, Sunnyvale, USA).
Complete medium: 50 mL HAMS F12 Nutrient Mixture (Gibco Invitrogen GmbH, Karlsruhe, Germany) with • 10% by vol. FCS (fetal calf serum, Gibco Invitrogen GmbH, Karlsruhe, Germany, heat-inactivated); • 2 mM L-glutamine (Sigma, Munich, Germany); • 1% by weight AA solution (antibiotic/antimycotic solution, PAA, Pasching, Austria) and 25 ng/ml medium NGF (2.5 S, Gibco Invitrogen GmbH, Karlsruhe, Germany)
Cell culture plate: Poly-D-Lysin-coated, 96 well black/clear plates (BD Biosciences, Heidelberg, Germany) are additionally coated with laminin (Gibco Invitrogen GmbH, Karlsruhe, Germany) by diluting laminin to a concentration of […] with PBS (Ca—Mg-free PBS, Gibco Invitrogen GmbH, Karlsruhe, Germany). Aliquots with a concentration of 100 μg/mL of laminin are removed and stored at −20° C. The aliquots are diluted with PBS in a ratio of 1:10 to 10 μg/mL of laminin and respectively 50 μL of the solution is pipetted into a recess of the cell culture plate. Die cell culture plates are incubated for at least two hours at 37° C., the remaining solutions is filtered off by suction and the recesses are each washed twice with PBS. The coated cell culture plates are stored with the remaining PBS and this is only removed directly before the addition of the cells.
The spinal column is removed from decapitated rats and this is placed directly in a cold HBSS buffer (Hank's buffered saline solution, Gibco Invitrogen GmbH, Karlsruhe, Germany), located in an ice bath, to which is added 1% by vol. (percent by volume) of an AA solution (antibiotic/antimycotic solution, PM, Pasching, Austria). The spinal column is divided longitudinally and removed from the vertebral canal together with fascia. The dorsal root ganglia (DRGs) are subsequently removed and in turn stored in cold HBSS buffer to which is added 1% by vol. of an AA solution. The DRGs which have been made completely free of blood residues and spinal nerves are transported in each case into 500 μL cold collagenase type 2 (PAA, Pasching, Austria) and incubated for 35 minutes at 37° C. […]
The DRGs are each multiply suspended, drawn by means of a syringe through cannulas no. […] The resultant pellet is respectively received in 250 μL complete medium and the cell number determined. […]

T1 sequence (O35433 whole entry): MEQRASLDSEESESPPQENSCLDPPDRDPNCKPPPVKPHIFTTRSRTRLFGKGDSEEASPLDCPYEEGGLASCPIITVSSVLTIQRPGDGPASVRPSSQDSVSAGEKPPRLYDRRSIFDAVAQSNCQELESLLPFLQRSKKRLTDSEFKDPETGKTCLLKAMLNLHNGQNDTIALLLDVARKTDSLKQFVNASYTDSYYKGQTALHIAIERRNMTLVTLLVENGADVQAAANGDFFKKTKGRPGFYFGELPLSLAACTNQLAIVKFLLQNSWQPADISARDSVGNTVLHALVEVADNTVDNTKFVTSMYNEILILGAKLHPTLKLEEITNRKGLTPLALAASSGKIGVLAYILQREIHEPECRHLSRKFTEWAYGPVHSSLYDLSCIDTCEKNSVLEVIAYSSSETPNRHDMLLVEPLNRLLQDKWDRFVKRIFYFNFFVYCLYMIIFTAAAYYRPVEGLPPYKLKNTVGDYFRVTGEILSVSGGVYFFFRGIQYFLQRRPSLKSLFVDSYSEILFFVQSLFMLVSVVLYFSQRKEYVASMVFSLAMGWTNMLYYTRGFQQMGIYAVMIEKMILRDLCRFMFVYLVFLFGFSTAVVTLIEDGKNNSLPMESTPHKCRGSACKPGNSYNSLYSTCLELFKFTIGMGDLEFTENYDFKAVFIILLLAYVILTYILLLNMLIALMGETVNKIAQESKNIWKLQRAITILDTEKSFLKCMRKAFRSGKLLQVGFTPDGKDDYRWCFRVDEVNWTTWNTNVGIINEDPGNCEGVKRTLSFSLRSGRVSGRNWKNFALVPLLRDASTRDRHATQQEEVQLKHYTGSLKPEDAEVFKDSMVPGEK

Row | inhibition at 10 µM [%] | rVR1 [10 μM] stimulation [%] | SMILES
1 | 65 | 0 | CC(C)(C)c1ccc(CNc2noc3cc(-c4ccccn4)ccc23)cc1 [Compound 9, (4-tert-butyl-benzyl)-(6-pyridine-2-yl-benzo[d]isoxazol-3-yl)-amine]
2 | 99 | 29 | Cc1cccnc1-c1ccc2c(NCc3ccc(C(C)(C)C)cc3)noc2c1 [Compound 10, (4-tert-butyl-benzyl)-[6-(3-methyl-pyridine-2-yl)-benzo[d]isoxazol-3-yl]-amine]
